Measured values reported in PubChem BioAssay (NCI).
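Method: 48-hour compound exposure of cells in 96-well plates, five concentrations, linear interpolation of endpoints. The concentration for full growth arrest is given as TGI.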

Key:
Assay in all cases: DTP human tumour cell line panel, 48 h
COLO 205 colon = system: COLO 205 colon
SF-295 CNS = system: SF-295 CNS
UO-31 renal = system: UO-31 renal
K-562 leukemia = system: K-562 leukemia
CAKI-1 renal = system: CAKI-1 renal
SNB-19 CNS = system: SNB-19 CNS
HCT-116 colon = system: HCT-116 colon
A549 NSCLC = system: A549 NSCLC
MDA-N = system: MDA-N
NCI-H23 lung = system: NCI-H23 lung

CC(=O)c1ccccc1NCC(=O)Nn1cnc2ccc(S(=O)(=O)Nc3ccccc3C(C)=O)cc2c1=O was tested, and the TGI (COLO 205 colon) was greater than 100 µM, the TGI (SF-295 CNS) was greater than 100 µM and the TGI (UO-31 renal) was greater than 100 µM. It also gave a TGI (K-562 leukemia) greater than 100 µM, a TGI (CAKI-1 renal) greater than 100 µM and a TGI (SNB-19 CNS) greater than 100 µM. The TGI (HCT-116 colon) was greater than 100 µM, the TGI (A549 NSCLC) was greater than 100 µM and the TGI (MDA-N) was greater than 100 µM. For the same molecule, the TGI (NCI-H23 lung) was greater than 100 µM.
In the case of O=C(O)C[C@@H]1[C@@H](O)[C@@H](O)CN2C(=O)c3ccccc3[C@H]12, the TGI (COLO 205 colon) is reported as greater than 100 µM, the TGI (SF-295 CNS) is reported as greater than 100 µM and the TGI (UO-31 renal) is reported as greater than 100 µM. For the same molecule, the TGI (K-562 leukemia) was greater than 100 µM, the TGI (CAKI-1 renal) was greater than 100 µM and the TGI (SNB-19 CNS) was greater than 100 µM. It also gave a TGI (HCT-116 colon) greater than 100 µM, a TGI (A549 NSCLC) greater than 100 µM and a TGI (MDA-N) greater than 100 µM. It also gave a TGI (NCI-H23 lung) greater than 100 µM.
Brc1ccc2c3c1[C@H]1O[C@H]1c1cccc(c1-3)[C@@H]1O[C@H]21 was tested, and the TGI (COLO 205 colon) was 38.3 µM, the TGI (SF-295 CNS) was 29.3 µM and the TGI (UO-31 renal) was 32.1 µM. For the same molecule, the TGI (K-562 leukemia) was greater than 100 µM, the TGI (CAKI-1 renal) was 31.6 µM and the TGI (SNB-19 CNS) was 34.3 µM. The TGI (HCT-116 colon) was 37.8 µM, the TGI (A549 NSCLC) was 49.4 µM and the TGI (MDA-N) was 35.4 µM. For the same molecule, the TGI (NCI-H23 lung) was 38.7 µM.
Molecule COC1CC(OC2C(C)OC(OC3C(C)OC(OC4C(O)CC(O[C@H]5CC[C@@]6(C)C(=CC[C@]7(O)[C@@H]6C[C@@H](OC(C)=O)[C@@]6(C)[C@]7(O)CC[C@@]6(O)C(C)=O)C5)OC4C)CC3OC)CC2OC)OC(C)C1O (stereo not given in full) has a TGI (COLO 205 colon) greater than 12.5 µM, a TGI (SF-295 CNS) greater than 12.5 µM and a TGI (UO-31 renal) greater than 12.5 µM. The TGI (K-562 leukemia) was greater than 12.5 µM, the TGI (CAKI-1 renal) was greater than 12.5 µM and the TGI (SNB-19 CNS) was greater than 12.5 µM. For the same molecule, the TGI (HCT-116 colon) was greater than 12.5 µM, the TGI (A549 NSCLC) was greater than 12.5 µM and the TGI (MDA-N) was greater than 12.5 µM. For the same molecule, the TGI (NCI-H23 lung) was greater than 12.5 µM.
